The source of these data is patent publication US20230295197A1, “STAT5 and STAT6 Degraders and Uses Thereof” (REGENTS OF THE UNIVERSITY OF MICHICAN, priority 2022, published 2023).

Like-named read-outs stand apart in the source and are kept apart here.

This experiment concerns the target T1, STAT6 (Homo sapiens, UniProt P42226).
T1 construct: endogenous in cells; host or cells: MOLM-16, KU-812, SKNO1, MB231, L1236
T1 sequence (P42226 1-847): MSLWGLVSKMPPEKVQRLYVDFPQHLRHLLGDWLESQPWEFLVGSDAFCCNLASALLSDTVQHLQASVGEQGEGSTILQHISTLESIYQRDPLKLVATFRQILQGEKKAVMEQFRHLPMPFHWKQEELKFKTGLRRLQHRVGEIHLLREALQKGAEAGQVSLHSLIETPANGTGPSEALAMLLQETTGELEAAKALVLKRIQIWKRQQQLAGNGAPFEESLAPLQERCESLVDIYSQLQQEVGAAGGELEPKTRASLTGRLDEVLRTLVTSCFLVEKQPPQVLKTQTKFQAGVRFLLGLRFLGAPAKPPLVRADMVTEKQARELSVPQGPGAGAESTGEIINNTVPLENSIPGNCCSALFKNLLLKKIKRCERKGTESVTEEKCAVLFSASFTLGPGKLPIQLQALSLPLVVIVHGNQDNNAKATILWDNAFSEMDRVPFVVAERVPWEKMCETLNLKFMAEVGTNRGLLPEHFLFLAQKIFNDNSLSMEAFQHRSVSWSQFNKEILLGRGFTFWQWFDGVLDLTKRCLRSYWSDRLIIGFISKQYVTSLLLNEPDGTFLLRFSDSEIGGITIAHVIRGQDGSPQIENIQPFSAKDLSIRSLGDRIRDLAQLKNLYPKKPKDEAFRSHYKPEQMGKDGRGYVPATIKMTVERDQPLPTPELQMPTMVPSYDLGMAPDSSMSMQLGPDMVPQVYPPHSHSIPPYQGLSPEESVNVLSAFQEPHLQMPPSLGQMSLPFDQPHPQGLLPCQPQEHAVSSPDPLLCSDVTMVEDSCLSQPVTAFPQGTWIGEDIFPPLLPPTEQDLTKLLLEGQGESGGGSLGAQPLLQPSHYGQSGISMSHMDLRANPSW
As to the kind of experiment: Immunoblotting (Western blot) analysis of STAT6 degradation efficiency of degraders in treated cells. The class given is cell-based. The essentials: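 Protein levels of STAT5 and STAT6 were assessed in cells cultured at 37 °C in 10% FBS medium after compound exposure, by quantitative fluorescent Western blotting normalised to equal loading and referenced to GAPDH.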

The mark [1] stands for this setting: MOLM-16 cells, class symbols, read-out: DC50 S6 MOLM-16.
[2] abbreviates: MOLM-16 cells, numeric bound, read-out: DC50 S6 MOLM-16.
[3] abbreviates: L1236 cells, read-out: DC50 S6 L1236.

One may read the DC50 as the concentration giving 50% degradation. For `CC(C)(C)[C@H](NC(=O)c1cc2cc(C(F)(F)P(=O)(O)O)ccc2s1)C(=O)N1C[C@@H](OCC(=O)NCC#Cc2ccc3c(c2)C(=O)N(C2CCC(=O)NC2=O)C3=O)C[C@H]1C(=O)N1CCO[C@H](c2ccccc2)C1` (stereo partly drawn) [Compound 480, ((2-(((2S)-1-((2S,4S)-4-(2-((3-(2-(2,6-dioxopiperidin-3-yl)-1,3-dioxoisoindolin-5-yl)prop-2-yn-1-yl)amino)-2-oxoethoxy)-2-((R)-2-phenylmorpholine-4-carbonyl)pyrrolidin-1-yl)-3,3-dimethyl-1-oxobutan-2-yl)carbamoyl)benzo[b]thiophen-5-yl)difluoromethyl)phosphonic acid], the DC50 under setting [1] was greater than 10 µM.
As to `CC(C)(C)[C@H](NC(=O)c1cc2cc(C(F)(F)P(=O)(O)O)ccc2s1)C(=O)N1C[C@@H](OCC(=O)NCCCCCCCCCC#Cc2ccc3c(c2)C(=O)N(C2CCC(=O)NC2=O)C3=O)C[C@H]1C(=O)N1CCC[C@H](c2ccccc2)C1` (stereo partly drawn) [Compound 506, ((2-(((2S)-1-((2S,4S)-4-(2-((11-(2-(2,6-dioxopiperidin-3-yl)-1,3-dioxoisoindolin-5-yl)undec-10-yn-1-yl)amino)-2-oxoethoxy)-2-((R)-3-phenylpiperidine-1-carbonyl)pyrrolidin-1-yl)-3,3-dimethyl-1-oxobutan-2-yl)carbamoyl)benzo[b]thiophen-5-yl)difluoromethyl)phosphonic acid], under setting [1], the DC50 is greater than 10 µM.
On to `CC(C)(C)[C@H](NC(=O)c1cc2cc(C(F)(F)P(=O)(O)O)ccc2s1)C(=O)N1C[C@H](OCCCCCC#Cc2cccc3c2CN(C2CCC(=O)NC2=O)C3=O)C[C@H]1C(=O)N1CCC[C@H](c2ccccc2)C1` (stereo partly drawn) [Compound 602, ((2-(((2S)-1-((2S,4R)-4-((7-(2-(2,6-dioxopiperidin-3-yl)-1-oxoisoindolin-4-yl)hept-6-yn-1-yl)oxy)-2-((R)-3-phenylpiperidine-1-carbonyl)pyrrolidin-1-yl)-3,3-dimethyl-1-oxobutan-2-yl)carbamoyl)benzo[b]thiophen-5-yl)difluoromethyl)phosphonic acid], for which the DC50 under setting [2] was greater than 0.3 µM.
With `Cc1ncsc1-c1ccc([C@H](C)NC(=O)[C@@H]2C[C@@H](O)CN2C(=O)[C@@H](NC(=O)CCCCCNC(=O)CO[C@H]2C[C@@H](C(=O)N3CCO[C@H](c4ccccc4)C3)N(C(=O)[C@@H](NC(=O)c3cc4cc(C(F)(F)P(=O)(O)O)ccc4s3)C(C)(C)C)C2)C(C)(C)C)cc1` [Compound 429, (difluoro(2-(((S)-1-((2S,4S)-4-(2-((6-(((S)-1-((2S,4R)-4-hydroxy-2-(((S)-1-(4-(4-methylthiazol-5-yl)phenyl)ethyl)carbamoyl)pyrrolidin-1-yl)-3,3-dimethyl-1-oxobutan-2-yl)amino)-6-oxohexyl)amino)-2-oxoethoxy)-2-((R)-2-phenylmorpholine-4-carbonyl)pyrrolidin-1-yl)-3,3-dimethyl-1-oxobutan-2-yl)carbamoyl)benzo[b]thiophen-5-yl)methyl)phosphonic acid], the DC50 is greater than 10 µM under setting [3] and greater than 10 µM under setting [1].
As for `Cc1ncsc1-c1ccc([C@H](C)NC(=O)[C@@H]2C[C@@H](O)CN2C(=O)[C@@H](NC(=O)CCCCCCNC(=O)CC(=O)N2CCN(C(=O)[C@@H](NC(=O)c3cc4cc(C(F)(F)P(=O)(O)O)ccc4s3)C(C)(C)C)[C@H](C(=O)N3CCO[C@H](c4ccccc4)C3)C2)C(C)(C)C)cc1` [Compound 448, (difluoro(2-(((S)-1-((S)-4-(3-((7-(((S)-1-((2S,4R)-4-hydroxy-2-(((S)-1-(4-(4-methylthiazol-5-yl)phenyl)ethyl)carbamoyl)pyrrolidin-1-yl)-3,3-dimethyl-1-oxobutan-2-yl)amino)-7-oxoheptyl)amino)-3-oxopropanoyl)-2-((R)-2-phenylmorpholine-4-carbonyl)piperazin-1-yl)-3,3-dimethyl-1-oxobutan-2-yl)carbamoyl)benzo[b]thiophen-5-yl)methyl)phosphonic acid], the DC50 reads like this: under setting [3], greater than 10 µM; under setting [1], greater than 10 µM.
On to `CC(C)(C)[C@H](NC(=O)c1cc2cc(C(F)(F)P(=O)(O)O)ccc2s1)C(=O)N1C[C@@H](OCCCCCNc2cccc3c2CN(C2CCC(=O)NC2=O)C3=O)C[C@H]1C(=O)N1CCO[C@H](c2ccccc2)C1` (stereo partly drawn) [Compound 598, ((2-(((2S)-1-((2S,4S)-4-((5-((2-(2,6-dioxopiperidin-3-yl)-1-oxoisoindolin-4-yl)amino)pentyl)oxy)-2-((R)-2-phenylmorpholine-4-carbonyl)pyrrolidin-1-yl)-3,3-dimethyl-1-oxobutan-2-yl)carbamoyl)benzo[b]thiophen-5-yl)difluoromethyl)phosphonic acid], for which the DC50 under setting [2] was greater than 0.3 µM.
On to `Cc1ncsc1-c1ccc([C@H](C)NC(=O)[C@@H]2C[C@@H](O)CN2C(=O)[C@@H](NC(=O)CNC(=O)CO[C@H]2C[C@@H](C(=O)N3CCC[C@H](c4ccccc4)C3)N(C(=O)[C@@H](NC(=O)c3cc4cc(C(F)(F)P(=O)(O)O)ccc4s3)C(C)(C)C)C2)C(C)(C)C)cc1` [Compound 434, (difluoro(2-(((S)-1-((2S,4S)-4-(2-((2-(((S)-1-((2S,4R)-4-hydroxy-2-(((S)-1-(4-(4-methylthiazol-5-yl)phenyl)ethyl)carbamoyl)pyrrolidin-1-yl)-3,3-dimethyl-1-oxobutan-2-yl)amino)-2-oxoethyl)amino)-2-oxoethoxy)-2-((R)-3-phenylpiperidine-1-carbonyl)pyrrolidin-1-yl)-3,3-dimethyl-1-oxobutan-2-yl)carbamoyl)benzo[b]thiophen-5-yl)methyl)phosphonic acid], for which the DC50 was greater than 10 µM under setting [3] and greater than 10 µM under setting [1].
With `Cc1ncsc1-c1ccc([C@H](C)NC(=O)[C@@H]2C[C@@H](O)CN2C(=O)[C@@H](NC(=O)CCCCCCCNC(=O)CO[C@H]2C[C@@H](C(=O)N3CCO[C@H](c4ccccc4)C3)N(C(=O)[C@@H](NC(=O)c3cc4cc(C(F)(F)P(=O)(O)O)ccc4s3)C(C)(C)C)C2)C(C)(C)C)cc1` [Compound 431, (difluoro(2-(((S)-1-((2S,4S)-4-(2-((8-(((S)-1-((2S,4R)-4-hydroxy-2-(((S)-1-(4-(4-methylthiazol-5-yl)phenyl)ethyl)carbamoyl)pyrrolidin-1-yl)-3,3-dimethyl-1-oxobutan-2-yl)amino)-8-oxooctyl)amino)-2-oxoethoxy)-2-((R)-2-phenylmorpholine-4-carbonyl)pyrrolidin-1-yl)-3,3-dimethyl-1-oxobutan-2-yl)carbamoyl)benzo[b]thiophen-5-yl)methyl)phosphonic acid], the DC50 runs as follows: under setting [3], greater than 10 µM; under setting [1], greater than 10 µM.
Regarding `Cc1ncsc1-c1ccc([C@H](C)NC(=O)[C@@H]2C[C@@H](O)CN2C(=O)[C@@H](NC(=O)CCCNC(=O)CO[C@H]2C[C@@H](C(=O)N3CCO[C@H](c4ccccc4)C3)N(C(=O)[C@@H](NC(=O)c3cc4cc(C(F)(F)P(=O)(O)O)ccc4s3)C(C)(C)C)C2)C(C)(C)C)cc1` [Compound 427, (difluoro(2-(((S)-1-((2S,4S)-4-(2-((4-(((S)-1-((2S,4R)-4-hydroxy-2-(((S)-1-(4-(4-methylthiazol-5-yl)phenyl)ethyl)carbamoyl)pyrrolidin-1-yl)-3,3-dimethyl-1-oxobutan-2-yl)amino)-4-oxobutyl)amino)-2-oxoethoxy)-2-((R)-2-phenylmorpholine-4-carbonyl)pyrrolidin-1-yl)-3,3-dimethyl-1-oxobutan-2-yl)carbamoyl)benzo[b]thiophen-5-yl)methyl)phosphonic acid], the DC50 is, setting by setting: under setting [3], greater than 10 µM; under setting [1], greater than 10 µM.
Consider `CC(C)(C)[C@H](NC(=O)c1cc2cc(C(F)(F)P(=O)(O)O)ccc2s1)C(=O)N1C[C@@H](OCC(=O)NCCCCCC#Cc2ccc3c(c2)C(=O)N(C2CCC(=O)NC2=O)C3=O)C[C@H]1C(=O)N1CCC[C@H](c2ccccc2)C1` (stereo partly drawn) [Compound 502, ((2-(((2S)-1-((2S,4S)-4-(2-((7-(2-(2,6-dioxopiperidin-3-yl)-1,3-dioxoisoindolin-5-yl)hept-6-yn-1-yl)amino)-2-oxoethoxy)-2-((R)-3-phenylpiperidine-1-carbonyl)pyrrolidin-1-yl)-3,3-dimethyl-1-oxobutan-2-yl)carbamoyl)benzo[b]thiophen-5-yl)difluoromethyl)phosphonic acid], for which, under setting [1], the half-maximal degradation concentration (DC50) was greater than 10 µM.
